# Assay results reported in ChEMBL document CHEMBL3272039, “Potenial antitumor agents. 28. Deoxyribonucleic acid polyintercalating agents” (J Med Chem, 1978).
# Experiments:
# [1] = Lipophilic-hydrophilic balance, Rm of the compound by reversed-phase chromatographic analysis; assay type: physicochemical
# [2] = species on record: Bos taurus; assay: Displacement of ethidium bromide from calf thymus DNA by spectrofluorometric analysis
# [3] = tested on: Mus musculus; assay: (§1) Toxicity in ip dosed BDF1 mouse allografted with mouse P388 cells administered qd for 5 days; assay type: organism-based; conditions: mouse, in vivo, 120 h
# [4] = tested on: L1210; assay: Antitumor activity against mouse L1210 cells allografted in ip dosed BDF1 mouse at optimum dose administered qd for 5 days relative to control; assay type: functional
# [5] = (§2) Toxicity in ip dosed BDF1 mouse allografted with mouse L1210 cells administered qd for 5 days; assay type: organism-based; conditions: BDF1, mouse, in vivo
# [6] = tested on: Pseudoalteromonas; assay: Induction of bacteriophage PM2 closed circular DNA unwinding assessed as drug per nucleic acid phosphate ratio at equivalence by viscometric analysis
# [7] = tested on: P388; assay: Antitumor activity against mouse P388 cells allografted in ip dosed BDF1 mouse at optimum dose administered qd for 5 days relative to control; assay type: functional
# [8] = as §1; assay type: organism-based; conditions: BDF1, mouse, in vivo
# [9] = tested on: Mus musculus; assay: as §2; assay type: organism-based; conditions: mouse, in vivo, 120 h
Compound,Rm [1],C50 [2] [µM],Activity [3] [mg/kg/day],ILS [4] [%],MTD at 120 h [5] [mg/kg/day],Ratio [6],ILS [7] [%],MTD at 120 h [8] [mg/kg/day],Activity [9] [mg/kg/day]
Cl.O.O=S(=O)(CCNc1c2ccccc2nc2ccccc12)Nc1ccc(Nc2c3ccccc3nc3ccccc23)cc1,-0.17,0.09,60,>25,60,0.078,31,–,–
c1ccc(Nc2c3ccccc3nc3ccccc23)cc1,0.43,13,–,>25,105,–,>25,105,–
Cl.O.O=S(=O)(CCCS(=O)(=O)Nc1ccc(Nc2c3ccccc3nc3ccccc23)cc1)Nc1ccc(Nc2c3ccccc3nc3ccccc23)cc1,-0.16,0.064,250,>25,250,–,29,–,–
Cl.O.O=S(=O)(CCCNc1c2ccccc2nc2ccccc12)Nc1ccc(Nc2c3ccccc3nc3ccccc23)cc1,-0.25,0.1,300,>25,300,–,38,–,–
COc1cc(NS(C)(=O)=O)ccc1Nc1c2ccccc2nc2ccccc12 [AMSACRINE],0.18,10.8,6.7,114,–,0.082,–,–,6.7
Br.O.O=S(=O)(CCCCCCNc1ccnc2ccccc12)Nc1ccc(Nc2c3ccccc3nc3ccccc23)cc1,-0.09,0.65,–,>25,75,–,>25,75,–
Br.O=S(=O)(CCCCNc1ccnc2ccccc12)Nc1ccc(Nc2c3ccccc3nc3ccccc23)cc1,-0.31,0.18,75,29,–,0.091,76,–,75
Cl.O.O=S(=O)(CCCCCNc1ccnc2ccccc12)Nc1ccc(Nc2c3ccccc3nc3ccccc23)cc1,-0.24,0.4,200,>25,200,–,37,–,–
Br.O.O=S(=O)(CCNc1ccnc2ccccc12)Nc1ccc(Nc2c3ccccc3nc3ccccc23)cc1,-0.54,0.12,90,>25,90,0.12,36,–,–
CS(=O)(=O)Nc1ccc(Nc2ccnc3ccccc23)cc1,-0.39,490,–,>25,200,–,>25,200,–
COc1cc(NS(=O)(=O)CCCCS(=O)(=O)Nc2ccc(Nc3c4ccccc4nc4ccccc34)c(OC)c2)ccc1Nc1c2ccccc2nc2ccccc12,0.27,0.057,> 500,26,–,0.041,39,–,> 500
